Assay results published in patent US20070010507A1, “Compounds useful in the therapy of alzheimer's disease and formulations containing them” (priority 2003, published 2007).

Tested on: α-secretase-mediated APP metabolism (SH-SY5Y neuroblastoma cells)
Assay: α-secretase-induced APPs release in culture medium of neuroblastoma cell line SH-SY5Y
Type: cell-based
Settings: APPs secreted in culture medium of SH-SY5Y cells, control = 100
Procedure: The salts according to the present invention are stable crystalline products having strong antidepressive and anti-Alzheimer actions. The effect of the compounds of the invention on α-secretase-induced APPs release was determined in the culture medium of a neuroblastoma cell line (SH-SY5Y) according to what reported by Galbete J. L. et al. in Biochem. 348,307-313, 2000.

| Compound | APPs % (concentration not given) [%] | APPs % (10 μM) [%] |
| --- | --- | --- |
| CC(C)=CCC[C@]1(C)[C@@H](CC=C(C)C)C[C@@]2(CC=C(C)C)C(=O)[C@]1(C(=O)C(C)C)C(=O)C(CC=C(C)C)=C2O.COc1ccc2c3c1O[C@H]1C[C@@H](O)C=C[C@@]31CCN(C)C2 [Galantamonium hyperforinate] | 773 |  |
| CC(C)CCC[C@]1(C)[C@@H](CCC(C)C)C[C@@]2(CCC(C)C)C(=O)[C@]1(C(=O)C(C)C)C(=O)C(CCC(C)C)=C2O [Octahydrohyperforin] |  | 1383 |
| COc1ccc2c3c1O[C@H]1C[C@@H](O)C=C[C@@]31CCN(C)C2 [Galantamine] | 302 |  |
| CC(C)=CCC[C@]1(C)[C@@H](CC=C(C)C)C[C@@]2(CC=C(C)C)C(=O)[C@]1(C(=O)C(C)C)C(=O)C(CC=C(C)C)=C2O [Hyperforin] |  | 296 |
| Memantine octahydrohyperforinate [Mentamine octahydrohyperforinate] |  | 3221 |
| CC(C)CCCC1(C)C(CCC(C)C)CC2(CCC(C)C)C(=O)C1(C(=O)C(C)C)C(=O)C(CCC(C)C)=C2O.COc1ccc2c3c1OC1CC(O)C=CC31CCN(C)C2 (stereo not drawn) [Galantamonium octahydrohyperforinate, Galantamine octahydrohyperforinate] |  | 3652 |
